This passage reports IC50 results from the Kinase Knowledgebase extract (Sharma et al. 2016).

Bounds are passed on as bounds.

Assay [1] has as its target PIK3CA (human) (UniProt P42336). Put plainly: Enzyme Assay.
Assay [2] has as its target PIK3CD (Human) (UniProt O00329). Nature of the assay: Enzyme Assay.
Assay [3] deals with PIK3CG (human) (UniProt P48736). Put plainly: Enzyme Assay.
Assay [4] concerns the target PIK3CA (human) (UniProt P42336). Nature of the assay: Cell-Based Assay. As to conditions: rat-1.
In assay [5] the target is PIK3CD (Human) (UniProt O00329). Nature of the assay: Cell-Based Assay. As to conditions: rat-1.
PIK3CD (Human), sequence (O00329 whole entry, looked up): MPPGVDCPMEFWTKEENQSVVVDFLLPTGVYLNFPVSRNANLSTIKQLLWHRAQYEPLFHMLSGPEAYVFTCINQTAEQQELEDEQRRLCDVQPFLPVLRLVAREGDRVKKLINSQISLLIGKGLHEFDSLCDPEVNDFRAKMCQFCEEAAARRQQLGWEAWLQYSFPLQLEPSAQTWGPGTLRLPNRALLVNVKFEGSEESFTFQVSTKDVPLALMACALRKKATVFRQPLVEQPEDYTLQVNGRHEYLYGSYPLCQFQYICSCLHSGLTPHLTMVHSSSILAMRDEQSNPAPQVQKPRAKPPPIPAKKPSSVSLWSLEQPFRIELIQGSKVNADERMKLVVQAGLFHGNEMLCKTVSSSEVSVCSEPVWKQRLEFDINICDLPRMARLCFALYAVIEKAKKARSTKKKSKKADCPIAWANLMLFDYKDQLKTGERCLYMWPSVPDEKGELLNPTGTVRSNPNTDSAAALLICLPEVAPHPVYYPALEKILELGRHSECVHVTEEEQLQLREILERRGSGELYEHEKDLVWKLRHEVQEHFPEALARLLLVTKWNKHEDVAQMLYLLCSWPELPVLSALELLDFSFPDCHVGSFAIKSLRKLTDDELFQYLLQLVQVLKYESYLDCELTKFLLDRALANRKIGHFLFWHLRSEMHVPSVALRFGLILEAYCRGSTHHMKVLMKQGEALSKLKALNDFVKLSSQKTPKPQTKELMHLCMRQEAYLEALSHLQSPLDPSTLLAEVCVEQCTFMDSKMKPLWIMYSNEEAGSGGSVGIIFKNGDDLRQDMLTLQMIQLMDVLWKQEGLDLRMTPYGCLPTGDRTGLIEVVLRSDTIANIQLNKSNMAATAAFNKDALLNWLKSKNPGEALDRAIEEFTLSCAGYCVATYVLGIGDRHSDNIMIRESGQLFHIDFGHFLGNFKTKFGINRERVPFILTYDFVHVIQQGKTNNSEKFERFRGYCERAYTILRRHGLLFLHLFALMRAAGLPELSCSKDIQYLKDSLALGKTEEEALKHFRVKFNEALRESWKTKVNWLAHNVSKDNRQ

PIK3CG (human), sequence (P48736 whole entry, looked up): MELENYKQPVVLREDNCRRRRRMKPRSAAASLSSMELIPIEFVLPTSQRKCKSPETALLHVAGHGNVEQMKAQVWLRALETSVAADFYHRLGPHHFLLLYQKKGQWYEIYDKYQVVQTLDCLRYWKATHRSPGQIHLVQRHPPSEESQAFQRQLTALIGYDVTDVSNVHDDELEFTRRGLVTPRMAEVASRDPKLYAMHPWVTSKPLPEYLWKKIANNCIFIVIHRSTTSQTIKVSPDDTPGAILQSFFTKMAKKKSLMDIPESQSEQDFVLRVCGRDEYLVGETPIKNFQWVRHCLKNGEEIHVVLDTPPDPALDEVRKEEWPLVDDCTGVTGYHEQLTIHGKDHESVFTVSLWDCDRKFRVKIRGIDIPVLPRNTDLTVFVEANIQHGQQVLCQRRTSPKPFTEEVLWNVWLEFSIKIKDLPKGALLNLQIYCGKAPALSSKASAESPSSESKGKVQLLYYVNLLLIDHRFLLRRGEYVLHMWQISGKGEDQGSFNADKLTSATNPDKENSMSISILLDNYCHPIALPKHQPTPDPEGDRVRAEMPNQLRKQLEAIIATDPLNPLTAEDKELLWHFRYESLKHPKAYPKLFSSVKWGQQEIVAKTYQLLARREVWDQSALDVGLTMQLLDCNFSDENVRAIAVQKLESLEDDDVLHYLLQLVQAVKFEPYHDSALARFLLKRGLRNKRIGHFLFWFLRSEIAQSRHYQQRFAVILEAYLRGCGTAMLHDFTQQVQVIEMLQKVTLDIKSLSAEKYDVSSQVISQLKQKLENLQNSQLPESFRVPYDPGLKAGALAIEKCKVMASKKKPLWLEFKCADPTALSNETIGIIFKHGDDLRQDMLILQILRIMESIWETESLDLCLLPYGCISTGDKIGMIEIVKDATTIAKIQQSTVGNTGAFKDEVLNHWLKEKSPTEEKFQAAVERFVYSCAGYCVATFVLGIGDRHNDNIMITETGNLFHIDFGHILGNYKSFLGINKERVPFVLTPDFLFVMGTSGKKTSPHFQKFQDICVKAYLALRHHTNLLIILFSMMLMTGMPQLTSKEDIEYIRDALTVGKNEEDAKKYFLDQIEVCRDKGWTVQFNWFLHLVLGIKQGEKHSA
PIK3CA (human), sequence (P42336 whole entry, looked up): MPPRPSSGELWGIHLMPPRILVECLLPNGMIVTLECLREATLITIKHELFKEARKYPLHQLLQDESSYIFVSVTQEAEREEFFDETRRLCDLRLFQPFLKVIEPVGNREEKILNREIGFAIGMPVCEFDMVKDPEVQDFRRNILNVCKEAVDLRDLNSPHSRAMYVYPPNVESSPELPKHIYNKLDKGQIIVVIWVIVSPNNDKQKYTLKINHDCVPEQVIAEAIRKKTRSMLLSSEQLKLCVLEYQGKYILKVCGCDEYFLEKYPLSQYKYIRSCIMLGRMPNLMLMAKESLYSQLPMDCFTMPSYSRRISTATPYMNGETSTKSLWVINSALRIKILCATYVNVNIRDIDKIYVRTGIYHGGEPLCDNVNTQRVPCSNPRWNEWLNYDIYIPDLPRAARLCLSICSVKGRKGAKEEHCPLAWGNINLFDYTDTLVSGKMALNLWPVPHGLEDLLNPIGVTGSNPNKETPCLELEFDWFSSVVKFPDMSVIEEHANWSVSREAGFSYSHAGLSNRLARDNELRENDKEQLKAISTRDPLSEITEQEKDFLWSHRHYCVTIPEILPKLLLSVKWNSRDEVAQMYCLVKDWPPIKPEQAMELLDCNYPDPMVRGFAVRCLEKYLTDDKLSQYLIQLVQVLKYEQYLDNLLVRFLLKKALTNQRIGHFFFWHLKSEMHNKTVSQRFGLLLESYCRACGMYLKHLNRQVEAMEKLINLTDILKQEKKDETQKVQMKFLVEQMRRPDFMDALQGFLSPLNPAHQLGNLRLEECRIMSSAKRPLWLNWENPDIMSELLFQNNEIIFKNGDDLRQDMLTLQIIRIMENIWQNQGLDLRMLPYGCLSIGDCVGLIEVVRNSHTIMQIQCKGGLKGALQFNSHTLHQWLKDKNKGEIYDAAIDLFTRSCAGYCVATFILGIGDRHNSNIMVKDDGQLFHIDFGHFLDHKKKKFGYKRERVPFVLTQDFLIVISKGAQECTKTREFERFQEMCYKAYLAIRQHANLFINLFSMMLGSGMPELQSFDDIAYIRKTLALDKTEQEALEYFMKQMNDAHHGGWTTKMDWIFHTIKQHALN

Turning to `Nc1nc(N2CCC[C@H]2c2nc3cccc(Cl)c3c(=O)n2N2CCCCC2)c2nc[nH]c2n1`, the IC50 in assay [1] was found to be 2.3 µM; in assay [2], 0.012 µM; in assay [3], 0.13 µM; in assay [4] it was 8.58 µM; in assay [5], 0.291 µM.

Regarding `CO[C@H]1C[C@@H](c2nc3cccc(Cl)c3c(=O)n2C2CC2)N(c2nc(N)nc(C)c2C#N)C1`, the IC50 is 1.32 µM in assay [1]; 0.104 µM in assay [2]; 0.22 µM in assay [3]; 3.54 µM in assay [4]; 0.073 µM in assay [5].

For `N#Cc1c(N)ncnc1N1CCC[C@H]1c1nc2cccc(Cl)c2c(=O)n1C1CCCCC1`, the IC50 in assay [1] was above 10 µM; in assay [2] it was 0.016 µM; in assay [3] it was 1.1 µM; in assay [4], above 10 µM; in assay [5], 0.013 µM.

Regarding `COC(=O)N1CC[C@@H](n2c([C@@H]3CCCN3c3ncnc4[nH]cnc34)nc3cccc(Cl)c3c2=O)C1`, the IC50 is above 10 µM in assay [1]; 0.2 µM in assay [2]; above 10 µM in assay [3]; above 10 µM in assay [4]; 2.35 µM in assay [5].

As for `CN(C)n1c([C@@H]2CCCN2c2nc(N)nc3[nH]cnc23)nc2cccc(Cl)c2c1=O`, the IC50 in assay [1] came to 1.2 µM; in assay [2], 0.11 µM; in assay [3], 0.78 µM; in assay [4], 2.86 µM; in assay [5] it was 0.128 µM.

For the molecule `COC(=O)N1CC[C@H](n2c([C@@H]3CCCN3c3ncnc4[nH]cnc34)nc3cccc(Cl)c3c2=O)C1`, the IC50 was 9.3 µM in assay [1]; 0.44 µM in assay [2]; above 10 µM in assay [3]; above 10 µM in assay [4]; 1.15 µM in assay [5].

As for `Cn1nccc1-n1c([C@@H]2CSCN2c2ncnc3[nH]cnc23)nc2cccc(Cl)c2c1=O`, the IC50 was 0.056 µM in assay [2], 0.42 µM in assay [3], above 10 µM in assay [4] and 0.222 µM in assay [5].

On to `Cc1nc(N)nc(N2CCC[C@H]2c2nc3cc(F)cc(F)c3c(=O)n2-c2ccccc2)c1C#N`, for which the IC50 in assay [1] was 5.6 µM; in assay [2], 0.073 µM; in assay [3], 3.1 µM; in assay [4] it was above 10 µM; in assay [5], 0.148 µM.

Consider `Cc1ccccc1-n1c([C@@H]2CCON2c2ncnc3[nH]cnc23)nc2cccc(Cl)c2c1=O`, for which the IC50 in assay [1] is above 10 µM; in assay [2] it was 0.1 µM; in assay [3] it was 1.2 µM; in assay [4], above 10 µM; in assay [5], 2.48 µM.

For the molecule `O=c1c2c(Cl)cccc2nc([C@@H]2CCCN2c2ncnc3[nH]cnc23)n1N1CCCCC1`, the IC50 was 1.8 µM in assay [1]; 0.01 µM in assay [2]; 0.2 µM in assay [3]; above 10 µM in assay [4]; 0.198 µM in assay [5].

With `Cc1nc(N)c(C#N)c(N2CCC[C@H]2c2nc3cccc(C(F)(F)F)c3c(=O)n2-c2ccccc2)n1`, the IC50 in assay [1] was above 10 µM; in assay [2], 0.043 µM; in assay [3] it was above 10 µM; in assay [4] it was above 10 µM; in assay [5] it was above 10 µM.

As for `CS(=O)(=O)N1CC[C@@H](n2c([C@@H]3CCCN3c3ncnc4[nH]cnc34)nc3cccc(Cl)c3c2=O)C1`, the IC50 was above 10 µM in assay [1], 0.21 µM in assay [2], 3.7 µM in assay [3] and above 10 µM in assay [4].

With `Nc1nc(N2C[C@@H](O)C[C@H]2c2nc3cccc(Cl)c3c(=O)n2-c2ccccc2)c2nccn2n1`, the IC50 in assay [1] stood at 1 µM; in assay [2], 0.015 µM; in assay [3] it was 0.031 µM.

For the molecule `O=c1c2c(Cl)cccc2nc([C@@H]2CCCN2c2ncnc3[nH]cnc23)n1[C@@H]1CCN(S(=O)(=O)C2CC2)C1`, the IC50 was above 10 µM in assay [1], 0.51 µM in assay [2], 5.6 µM in assay [3] and above 10 µM in assay [4].

With `O=c1c2c(Cl)cccc2nc([C@@H]2CCON2c2ncnc3[nH]cnc23)n1-c1ccccc1`, the IC50 in assay [2] was 0.15 µM; in assay [3] it was 0.98 µM; in assay [4], above 10 µM; in assay [5] it was 1.81 µM.

In general, IC50 refers to the point on the concentration scale where inhibition reaches its midpoint. A higher IC50 goes with lower potency.
